{
  "source": "paper PMC7785352",
  "about": "“Antioxidant and α-Glucosidase Inhibitory Activities Guided Isolation and Identification of Components from Mango Seed Kernel” (Oxidative Medicine and Cellular Longevity, 2020)",
  "key": {"[1]": {"experiment": "DPPH radical scavenging activity assay", "settings": "mean ± SD; for IC50: isolated compounds, test concentrations 15.625 to 500 μM", "protocol": "The DPPH radical scavenging activity assay was determined according to the reported method with minor modifications. Briefly, extract and four fractions were dissolved in methyl alcohol at concentrations ranging from 62.5 to 1000 μg/mL, which were prepared to mix with a methyl alcohol solution of DPPH (0.2 mM, 100 μL) on a 96-well plate. After that, shaken gently and stood at room temperature for 30 min, the optical density (OD) 517 nm in each well were determined by a microplate reader. Triplicates of each sample were run, and the mean values were calculated. Ascorbic acid was chosen as positive control. The percentage inhibition (%) for each sample was calculated by the following formula: (1) Inhibition %=1−Abssamples−Abscontrol/Absblank ×100%.\nDPPH solution was replaced by a methanol solution, which was used as control, and samples were replaced by the methanol solution as the black. All the results were expressed as means ± standard deviation (SD).\nThe antioxidant and α-glucosidase inhibitory activities of each isolated compound at concentrations ranging from 15.625 to 500 μM (DPPH) and from 125 to 2000 μM (α-glucosidase inhibitory), respectively, were determined using the methods described in Section 2.3."}, "[2]": {"target": "α-glucosidase", "experiment": "Inhibitory kinetic analysis (Lineweaver-Burk and Dixon plots)", "format": "biochemical, Baker's yeast", "settings": "substrate 0.8-5.0 mM, enzyme 1.3 U/mL; for Ki: determined by Dixon plots; for α-Glucosidase inhibitory Inhibition mode: determined by Lineweaver-Burk plots", "protocol": "The kinetic mechanisms of active compounds 1 and 2 towards α-glucosidase were determined by the graphical views of Dixon and Lineweaver-Burk plots. The concentration ranges for the substrates were 0.8-5.0 mM. The concentration of the enzyme was kept constant at 1.3 U/mL. Lineweaver-Burk plots were established to evaluate the type of inhibition. Dixon plots were used to calculate inhibitory constant (Ki) values of the tested compounds. Each kinetic analysis was implemented in triplicate from which mean Ki values."}, "[3]": {"target": "α-Glucosidase from Baker's yeast", "experiment": "α-Glucosidase inhibitory assay (p-NPG substrate, 96-well plate)", "format": "biochemical", "settings": "isolated compounds; for IC50: test concentrations 125 to 2000 μM, mean ± SD", "protocol": "The α-glucosidase inhibitory assay was performed on a 96-well plate by using a microplate reader according to the published method with minor modifications. […] […] After 5 min incubation at 37°C, 20 μL of 4-pNPG (p-nitrophenyl-α-D-glucopyranoside) (2.5 mM) was added and incubated for 15 min; then, 80 μL of Na2CO3 (0.2 M) was added to stop the reaction. The optical density (OD) values were determined using a microplate reader at 405 nm. Triplicates of each sample were run, and the mean values were calculated. […] The IC50 was calculated by using SPSS software."}},
  "note": "Marks after values point to notes of the source that are not given here.",
  "data": [
    {"smiles": "O=C1O[C@H]([C@@H](O)CO)C(O)=C1O", "note": "[Ascorbic acid, reference compound]", "values": [
      {"measurement": "DPPH assay IC50", "setting": "[1]; extract and fractions, test concentrations 62.5 to 1000 μg/mL, n = 3", "value": "9.37 ± 0.84^e μg/mL"}
    ]},
    {"smiles": "O=C(OC[C@H]1O[C@@H](OC(=O)c2cc(O)c(O)c(O)c2)[C@H](OC(=O)c2cc(O)c(O)c(O)c2)[C@@H](OC(=O)c2cc(O)c(O)c(O)c2)[C@@H]1OC(=O)c1cc(O)c(O)c(O)c1)c1cc(O)c(O)c(O)c1", "note": "[Compound 1, 1,2,3,4,6-Penta-O-galloyl-β-D-glucoside]", "values": [
      {"measurement": "Ki", "setting": "[2]", "value": "0.73295 ± 0.00022", "unit": "µM"},
      {"measurement": "α-Glucosidase inhibitory Inhibition mode", "setting": "[2]", "value": "Noncompetitive"},
      {"measurement": "IC50", "setting": "[1]", "value": "2.93 ± 1.06", "unit": "µM"}
    ]},
    {"smiles": "O=C(OCC1OC(OC(=O)c2cc(O)c(O)c(O)c2)C(OC(=O)c2cc(O)c(O)c(O)c2)C(OC(=O)c2cc(O)c(O)c(O)c2)C1OC(=O)c1cc(O)c(O)c(O)c1)c1cc(O)c(O)c(O)c1", "note": "[Compound 2, 1,2,3,4,6-Penta-O-galloyl-α-D-glucoside]", "values": [
      {"measurement": "Ki", "setting": "[2]", "value": "0.09837 ± 0.00031", "unit": "µM"},
      {"measurement": "α-Glucosidase inhibitory Inhibition mode", "setting": "[2]", "value": "Competitive"},
      {"measurement": "IC50", "setting": "[1]", "value": "22.3 ± 0.74", "unit": "µM"}
    ]},
    {"smiles": "O=C(OC[C@H]1O[C@@H](OC(=O)c2cc(O)c(O)c(O)c2)[C@H](OC(=O)c2cc(O)c(O)c(O)c2)[C@@H](OC(=O)c2cc(O)c(O)c(O)c2)[C@@H]1O)c1cc(O)c(O)c(O)c1", "note": "[Compound 3, 1,2,3,6-Tetra-O-galloyl-β-D-glucoside]", "values": [
      {"measurement": "IC50", "setting": "[1]", "value": "23.7 ± 0.52", "unit": "µM"},
      {"measurement": "IC50", "setting": "[3]", "value": "243.3 ± 1.43", "unit": "µM"}
    ]},
    {"smiles": "O=C(O[C@@H]1O[C@H](CO)[C@@H](O)[C@H](O)[C@H]1O)c1cc(O)c(O)c(O)c1", "note": "[Compound 4, 1-O-(3,4,5-Trihydroxybenzoyl)-β-D-glucoside]", "values": [
      {"measurement": "IC50", "setting": "[1]", "value": "52.8 ± 0.93", "unit": "µM"}
    ]},
    {"smiles": "COC(=O)c1cc(O)c(O)c(O)c1", "note": "[Compound 5, Methyl galate]", "values": [
      {"measurement": "IC50", "setting": "[1]", "value": "32.3 ± 0.48", "unit": "µM"},
      {"measurement": "α-glucosidase inhibitory activity (in words)", "setting": "[3]", "value": "no inhibitory activity"}
    ]},
    {"smiles": "O=C(O)c1cc(O)c(O)c(O)c1", "note": "[Compound 6, Gallic acid]", "values": [
      {"measurement": "IC50", "setting": "[1]", "value": "37.8 ± 2.52", "unit": "µM"},
      {"measurement": "IC50", "setting": "[3]", "value": "313 ± 3.71", "unit": "µM"}
    ]},
    {"smiles": "O=C(O)c1ccc(O)c(O)c1", "note": "[Compound 7, 3,4-Dihydroxybenzoic acid]", "values": [
      {"measurement": "IC50", "setting": "[1]", "value": "38.2 ± 1.03", "unit": "µM"},
      {"measurement": "IC50", "setting": "[3]", "value": "425 ± 31.5", "unit": "µM"}
    ]},
    {"smiles": "O=C(OCC(O)CO)c1cc(O)c(O)c(O)c1", "note": "(stereo not shown) [Compound 9, 1-Glycerol gallate]", "values": [
      {"measurement": "IC50", "setting": "[1]", "value": "> 500", "unit": "µM"},
      {"measurement": "α-glucosidase inhibitory activity (in words)", "setting": "[3]", "value": "no inhibitory activity"}
    ]},
    {"smiles": "CCOC(=O)c1cc(O)c(O)c(O)c1", "note": "[Compound 10, Ethyl gallate]", "values": [
      {"measurement": "IC50", "setting": "[1]", "value": "38 ± 1.94", "unit": "µM"},
      {"measurement": "α-glucosidase inhibitory activity (in words)", "setting": "[3]", "value": "no inhibitory activity"}
    ]},
    {"smiles": "COc1cc(/C=C/C(=O)O)ccc1O", "note": "[Compound 11, Ferulic acid]", "values": [
      {"measurement": "IC50", "setting": "[1]", "value": "95 ± 2.41", "unit": "µM"}
    ]},
    {"smiles": "O=C(O)/C=C/c1ccc(O)c(O)c1", "note": "[Compound 12, Caffeic acid]", "values": [
      {"measurement": "IC50", "setting": "[1]", "value": "36.91 ± 0.3", "unit": "µM"}
    ]},
    {"smiles": "O=c1c(O)c(-c2ccc(O)c(O)c2)oc2cc(O)cc(O)c12", "note": "[Compound 13, Quercetin]", "values": [
      {"measurement": "IC50", "setting": "[1]", "value": "60 ± 0.82", "unit": "µM"},
      {"measurement": "IC50", "setting": "[3]", "value": "138 ± 7.07", "unit": "µM"}
    ]},
    {"smiles": "Oc1cc(O)c2c(c1)O[C@H](c1ccc(O)c(O)c1)[C@H](O)C2", "note": "[Compound 16, Epicatechin]", "values": [
      {"measurement": "IC50", "setting": "[1]", "value": "40.1 ± 0.82", "unit": "µM"}
    ]}
  ]
}
